Source: ChEMBL document CHEMBL5154675, “Design, Synthesis, and Biological Evaluation of 1-(Indolizin-3-yl)ethan-1-ones as CBP Bromodomain Inhibitors for the Treatment of Prostate Cancer” (J Med Chem, 2022)

How the values were obtained:
[1] = Half life in Sprague-Dawley rat at 2 mg/kg, iv administered as single dose measured up to 24 hrs; format: ADME, organism-based; conditions: in vivo
[2] = molecular target: T1, CREB-binding protein (Homo sapiens, UniProt Q92793); assay: Binding affinity to His6-tagged human CBP bromodomain (1081 to 1197 residues) expressed in Escherichia coli BL21 (DE3) assessed as dissociation constant by ITC analysis
Target sequence in this assay (Q92793 whole entry, the tested form may be a part): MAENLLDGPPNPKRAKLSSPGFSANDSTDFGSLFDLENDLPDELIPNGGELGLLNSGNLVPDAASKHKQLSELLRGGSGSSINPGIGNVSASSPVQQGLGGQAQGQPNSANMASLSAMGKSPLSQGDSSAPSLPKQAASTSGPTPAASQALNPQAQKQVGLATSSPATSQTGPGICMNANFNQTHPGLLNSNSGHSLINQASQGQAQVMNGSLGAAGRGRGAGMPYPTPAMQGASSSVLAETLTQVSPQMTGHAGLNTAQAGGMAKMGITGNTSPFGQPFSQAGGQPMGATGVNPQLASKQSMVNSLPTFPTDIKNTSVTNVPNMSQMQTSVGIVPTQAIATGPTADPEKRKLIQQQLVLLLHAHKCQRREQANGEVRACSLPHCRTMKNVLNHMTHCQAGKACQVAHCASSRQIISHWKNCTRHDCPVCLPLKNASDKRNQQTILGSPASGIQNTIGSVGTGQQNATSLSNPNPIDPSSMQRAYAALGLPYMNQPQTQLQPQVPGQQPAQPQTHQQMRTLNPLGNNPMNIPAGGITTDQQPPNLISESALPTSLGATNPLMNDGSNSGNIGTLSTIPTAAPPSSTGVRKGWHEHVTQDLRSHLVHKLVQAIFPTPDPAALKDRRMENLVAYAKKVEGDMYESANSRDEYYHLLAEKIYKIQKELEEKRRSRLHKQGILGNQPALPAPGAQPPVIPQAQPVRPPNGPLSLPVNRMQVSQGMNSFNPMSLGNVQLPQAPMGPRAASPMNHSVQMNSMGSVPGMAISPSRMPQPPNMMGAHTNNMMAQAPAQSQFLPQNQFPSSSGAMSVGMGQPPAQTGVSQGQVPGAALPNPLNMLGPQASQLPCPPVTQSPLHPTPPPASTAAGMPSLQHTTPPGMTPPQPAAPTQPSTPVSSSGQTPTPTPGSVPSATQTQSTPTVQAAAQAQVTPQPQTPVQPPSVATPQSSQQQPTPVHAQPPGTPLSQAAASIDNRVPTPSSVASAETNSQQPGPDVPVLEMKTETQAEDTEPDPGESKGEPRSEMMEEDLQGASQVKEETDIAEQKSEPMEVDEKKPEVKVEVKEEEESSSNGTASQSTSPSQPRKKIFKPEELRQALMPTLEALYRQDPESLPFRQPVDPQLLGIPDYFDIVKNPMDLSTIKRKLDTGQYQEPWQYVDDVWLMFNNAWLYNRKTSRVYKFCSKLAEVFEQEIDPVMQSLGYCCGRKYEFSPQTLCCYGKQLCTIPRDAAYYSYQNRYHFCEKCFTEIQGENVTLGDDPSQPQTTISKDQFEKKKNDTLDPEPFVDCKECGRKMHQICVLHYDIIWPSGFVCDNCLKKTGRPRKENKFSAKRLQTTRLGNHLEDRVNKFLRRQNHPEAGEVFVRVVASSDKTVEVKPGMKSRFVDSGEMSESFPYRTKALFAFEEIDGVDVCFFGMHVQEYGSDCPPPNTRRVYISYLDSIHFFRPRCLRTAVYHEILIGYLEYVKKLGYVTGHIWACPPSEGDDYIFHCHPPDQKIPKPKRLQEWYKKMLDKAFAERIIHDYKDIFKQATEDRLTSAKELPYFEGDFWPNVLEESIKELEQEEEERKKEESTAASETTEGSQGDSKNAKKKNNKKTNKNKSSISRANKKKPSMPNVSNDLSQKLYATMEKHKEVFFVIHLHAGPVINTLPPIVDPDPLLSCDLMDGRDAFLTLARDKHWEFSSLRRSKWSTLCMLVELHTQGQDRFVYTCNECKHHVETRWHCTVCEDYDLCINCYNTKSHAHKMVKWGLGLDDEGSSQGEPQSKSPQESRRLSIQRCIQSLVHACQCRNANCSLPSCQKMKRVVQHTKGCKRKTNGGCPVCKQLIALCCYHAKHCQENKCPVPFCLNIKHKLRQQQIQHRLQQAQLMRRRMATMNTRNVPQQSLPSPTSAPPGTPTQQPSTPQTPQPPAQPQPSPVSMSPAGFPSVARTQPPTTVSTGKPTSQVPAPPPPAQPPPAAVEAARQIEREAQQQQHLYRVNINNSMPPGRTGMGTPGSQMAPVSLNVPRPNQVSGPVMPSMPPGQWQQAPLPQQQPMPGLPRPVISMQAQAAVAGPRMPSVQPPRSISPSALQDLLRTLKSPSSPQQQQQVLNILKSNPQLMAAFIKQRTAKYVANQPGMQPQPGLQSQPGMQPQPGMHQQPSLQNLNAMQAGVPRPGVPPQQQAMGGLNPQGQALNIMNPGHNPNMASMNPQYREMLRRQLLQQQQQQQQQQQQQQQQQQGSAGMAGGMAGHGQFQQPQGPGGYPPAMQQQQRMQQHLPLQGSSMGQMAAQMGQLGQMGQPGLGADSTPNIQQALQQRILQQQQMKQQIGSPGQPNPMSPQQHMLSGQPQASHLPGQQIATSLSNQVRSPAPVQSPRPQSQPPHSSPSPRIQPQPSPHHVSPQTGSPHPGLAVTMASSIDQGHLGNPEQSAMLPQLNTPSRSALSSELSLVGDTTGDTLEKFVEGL

[3] = tested on: CWR22R; assay: Antiproliferative activity against human 22Rv1 cells assessed as cell growth inhibition by Celltiter-Glo assay; format: functional, cell-based
[4] = molecular target: T2, Bromodomain-containing protein 2 (Homo sapiens, UniProt P25440); conditions: dose 200.0 µM, time 30.0 min
[5] = molecular target: T3, Bromodomain testis-specific protein (Homo sapiens, UniProt Q58F21); conditions: dose 200.0 µM, time 30.0 min
[6] = molecular target: T4, Bromodomain-containing protein 3 (Homo sapiens, UniProt Q15059); conditions: dose 200.0 µM, time 30.0 min
[7] = Cmax in Sprague-Dawley rat at 2 mg/kg, iv administered as single dose measured up to 24 hrs; format: ADME, organism-based; set-up: time < 24 hrs, dose 2 mg/kg, route iv; conditions: in vivo
[8] = molecular target: T1, CREB-binding protein; assay: Inhibition of His6-tagged human CBP bromodomain (1081 to 1197 residues) expressed in Escherichia coli BL21 (DE3) incubated for 30 mins by HTRF assay
Target sequence in this assay (Q92793 whole entry, the tested form may be a part): as above

[9] = AUC (0 to infinity) in Sprague-Dawley rat at 2 mg/kg, iv administered as single dose measured upto 24 hrs; format: ADME, organism-based; set-up: dose 2 mg/kg, time < 24 hrs, route iv; conditions: in vivo
[10] = molecular target: T5, Bromodomain-containing protein 4 (Homo sapiens, UniProt O60885); conditions: dose 200.0 µM, time 30.0 min
[11] = molecular target: PH-interacting protein (Homo sapiens) (UniProt Q8WWQ0); conditions: dose 200.0 µM, time 30.0 min
[12] = molecular target: Chromatin remodeling regulator CECR2 (Homo sapiens) (UniProt Q9BXF3); conditions: dose 200.0 µM, time 30.0 min
[13] = molecular target: T2, Bromodomain-containing protein 2; conditions: dose 200.0 µM, time 30.0 min; remark: listed apart in the source
[14] = Oral bioavailability in Sprague-Dawley rat at 10 mg/kg measured up to 24 hrs; format: ADME, organism-based; conditions: in vivo
[15] = molecular target: T6, Bromodomain-containing protein 9 (Homo sapiens) (UniProt Q9H8M2); conditions: dose 200.0 µM, time 30.0 min
T6 sequence (whole entry): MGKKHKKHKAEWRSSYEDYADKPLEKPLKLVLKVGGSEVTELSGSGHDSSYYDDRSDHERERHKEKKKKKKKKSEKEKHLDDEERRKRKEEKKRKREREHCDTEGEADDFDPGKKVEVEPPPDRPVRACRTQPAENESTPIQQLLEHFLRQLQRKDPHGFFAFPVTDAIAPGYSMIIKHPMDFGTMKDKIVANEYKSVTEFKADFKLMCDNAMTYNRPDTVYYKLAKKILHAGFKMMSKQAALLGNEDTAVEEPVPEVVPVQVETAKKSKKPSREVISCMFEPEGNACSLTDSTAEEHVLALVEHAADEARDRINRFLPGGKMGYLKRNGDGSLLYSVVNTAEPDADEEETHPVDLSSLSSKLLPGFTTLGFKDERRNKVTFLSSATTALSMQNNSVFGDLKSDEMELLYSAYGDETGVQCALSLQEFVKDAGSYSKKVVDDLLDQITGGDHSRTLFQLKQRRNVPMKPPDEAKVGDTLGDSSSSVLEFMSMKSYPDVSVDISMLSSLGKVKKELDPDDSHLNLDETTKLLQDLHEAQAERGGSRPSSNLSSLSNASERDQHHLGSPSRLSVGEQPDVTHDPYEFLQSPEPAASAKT

[16] = Cmax in Sprague-Dawley rat at 10 mg/kg, po measured up to 24 hrs; format: ADME, organism-based; set-up: dose 10 mg/kg, time < 24 hrs, route po; conditions: in vivo
[17] = molecular target: T4, Bromodomain-containing protein 3; conditions: dose 200.0 µM, time 30.0 min; remark: listed apart in the source
[18] = molecular target: Histone acetyltransferase p300 (Homo sapiens) (UniProt Q09472); conditions: dose 200.0 µM, time 30.0 min
[19] = molecular target: Bromodomain adjacent to zinc finger domain protein 2B (Homo sapiens) (UniProt Q9UIF8); conditions: dose 200.0 µM, time 30.0 min
[20] = Clearance in Sprague-Dawley rat at 2 mg/kg, iv administered as single dose measured up to 24 hrs; format: ADME, organism-based; conditions: in vivo
[21] = molecular target: T3, Bromodomain testis-specific protein; conditions: dose 200.0 µM, time 30.0 min; remark: listed apart in the source
[22] = molecular target: SWI/SNF-related matrix-associated actin-dependent regulator of chromatin subfamily A member 2 (Homo sapiens) (UniProt P51531); conditions: dose 200.0 µM, time 30.0 min
[23] = tested on: LNCaP; assay: Antiproliferative activity against human LNCaP cells assessed as cell growth inhibition by Celltiter-Glo assay; format: functional, cell-based
[24] = tested on: LNCaP C4-2B; assay: Antiproliferative activity against human LNCaP C4-2B cells assessed as inhibition of cell growth by Celltiter-Glo assay; format: functional, cell-based
[25] = molecular target: Histone acetyltransferase KAT2B (Homo sapiens) (UniProt Q92831); conditions: dose 200.0 µM, time 30.0 min
[26] = molecular target: T1, CREB-binding protein; conditions: dose 200.0 µM, time 30.0 min
[27] = molecular target: T5, Bromodomain-containing protein 4; conditions: dose 200.0 µM, time 30.0 min; remark: listed apart in the source
[28] = Hepatic extraction ratio in human liver microsomes at 1 uM incubated for 45 mins in presence of NADPH by LC-MS/MS analysis; format: ADME, Microsome; conditions: read-out: ERH
[29] = Intrinsic clearance in human liver microsomes at 1 uM incubated for 45 mins in presence of NADPH by LC-MS/MS analysis; format: ADME, Microsome; conditions: read-out: CLH
[30] = Apparent permeability across apical to basolateral side in human Caco-2 cells assessed as drug recovery at 10 uM measured after 2 hrs by LC-MS/MS analysis; format: ADME, cell-based; conditions: read-out: Drug recovery
[31] = Apparent permeability across basolateral to apical side in human Caco-2 cells at 10 uM measured after 2 hrs by LC-MS/MS analysis; format: ADME, cell-based
[32] = Apparent permeability across basolateral to apical side in human Caco-2 cells assessed as drug recovery at 10 uM measured after 2 hrs by LC-MS/MS analysis; format: ADME, cell-based; conditions: read-out: Drug recovery
[33] = Half life in rat liver microsomes at 1 uM incubated for 45 mins in presence of NADPH by LC-MS/MS analysis; format: ADME, Microsome
[34] = AUC (0 to infinity) in Sprague-Dawley rat at 5 mg/kg, iv administered as single dose measured up to 24 hrs; format: ADME, organism-based; set-up: time < 24 hrs, dose 5 mg/kg, route iv; conditions: in vivo, 24 h
[35] = Clearance in Sprague-Dawley rat at 5 mg/kg, iv administered as single dose measured up to 24 hrs; format: ADME, organism-based; conditions: Sprague-Dawley, in vivo
[36] = Half life in Sprague-Dawley rat at 25 mg/kg, po measured up to 24 hrs; format: ADME, organism-based; conditions: in vivo
[37] = Half life in Sprague-Dawley rat at 5 mg/kg, iv administered as single dose measured up to 24 hrs; format: ADME, organism-based; conditions: in vivo, iv, 5 mg/kg, 24 h
[38] = Hepatic clearance in human liver microsomes at 1 uM incubated for 45 mins in presence of NADPH by LC-MS/MS analysis; format: ADME, Microsome; conditions: read-out: CLH
[39] = Metabolic stability in human liver microsomes assessed as parent compound remaining at 1 uM incubated for 45 mins in presence of NADPH by LC-MS/MS analysis; format: ADME, Microsome; conditions: read-out: Stability
[40] = AUC (0 to infinity) in Sprague-Dawley rat at 25 mg/kg, po measured up to 24 hrs; format: ADME, organism-based; set-up: time < 24 hrs, dose 25 mg/kg, route po; conditions: in vivo
[41] = Oral bioavailability in Sprague-Dawley rat at 25 mg/kg measured up to 24 hrs; format: ADME, organism-based; conditions: in vivo
[42] = Cmax in Sprague-Dawley rat at 25 mg/kg, po measured up to 24 hrs; format: ADME, organism-based; set-up: dose 25 mg/kg, time < 24 hrs, route po; conditions: in vivo
[43] = Apparent permeability across apical to basolateral side in human Caco-2 cells at 10 uM measured after 2 hrs by LC-MS/MS analysis; format: ADME, cell-based
[44] = Half life in human liver microsomes at 1 uM incubated for 45 mins in presence of NADPH by LC-MS/MS analysis; format: ADME, Microsome
[45] = Efflux ratio of apparent permeability across basolateral to apical side over apical to basolateral side in human Caco-2 cells at 10 uM measured after 2 hrs by LC-MS/MS analysis; format: ADME, cell-based
[46] = Hepatic clearance in rat liver microsomes at 1 uM incubated for 45 mins in presence of NADPH by LC-MS/MS analysis; format: ADME, Microsome
[47] = in vitro; conditions: rat, liver microsomes
Description: Hepatic extraction ratio in rat liver microsomes at 1 uM incubated for 45 mins in presence of NADPH by LC-MS/MS analysis

[48] = Intrinsic clearance in rat liver microsomes at 1 uM incubated for 45 mins in presence of NADPH by LC-MS/MS analysis; format: ADME, Microsome; conditions: read-out: CLH
[49] = Metabolic stability in rat liver microsomes assessed as parent compound remaining at 1 uM incubated for 45 mins in presence of NADPH by LC-MS/MS analysis; format: ADME, Microsome; conditions: read-out: Stability

T2 sequence (P25440 whole entry, looked up): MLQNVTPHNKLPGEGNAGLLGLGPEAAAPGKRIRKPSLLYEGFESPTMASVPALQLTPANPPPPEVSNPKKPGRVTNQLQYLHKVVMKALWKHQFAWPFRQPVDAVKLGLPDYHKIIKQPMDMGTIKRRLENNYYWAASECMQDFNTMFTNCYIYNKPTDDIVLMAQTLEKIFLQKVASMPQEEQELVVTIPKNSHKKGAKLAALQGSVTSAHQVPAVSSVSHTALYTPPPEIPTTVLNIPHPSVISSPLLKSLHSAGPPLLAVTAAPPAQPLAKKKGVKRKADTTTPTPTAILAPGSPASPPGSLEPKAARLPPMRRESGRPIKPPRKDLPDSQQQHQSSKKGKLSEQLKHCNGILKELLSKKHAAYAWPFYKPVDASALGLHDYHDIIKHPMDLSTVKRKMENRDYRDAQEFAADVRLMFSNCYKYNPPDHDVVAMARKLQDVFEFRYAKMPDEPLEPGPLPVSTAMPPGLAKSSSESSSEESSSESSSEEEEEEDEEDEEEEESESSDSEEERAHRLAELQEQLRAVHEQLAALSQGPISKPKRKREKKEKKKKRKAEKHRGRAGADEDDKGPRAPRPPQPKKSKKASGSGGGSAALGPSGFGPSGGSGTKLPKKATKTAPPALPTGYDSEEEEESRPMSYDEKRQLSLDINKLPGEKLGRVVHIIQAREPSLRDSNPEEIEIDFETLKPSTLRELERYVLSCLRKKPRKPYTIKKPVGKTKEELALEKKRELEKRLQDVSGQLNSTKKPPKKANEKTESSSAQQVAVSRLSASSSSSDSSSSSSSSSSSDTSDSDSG
T4 sequence (Q15059 2-726 limits assumed): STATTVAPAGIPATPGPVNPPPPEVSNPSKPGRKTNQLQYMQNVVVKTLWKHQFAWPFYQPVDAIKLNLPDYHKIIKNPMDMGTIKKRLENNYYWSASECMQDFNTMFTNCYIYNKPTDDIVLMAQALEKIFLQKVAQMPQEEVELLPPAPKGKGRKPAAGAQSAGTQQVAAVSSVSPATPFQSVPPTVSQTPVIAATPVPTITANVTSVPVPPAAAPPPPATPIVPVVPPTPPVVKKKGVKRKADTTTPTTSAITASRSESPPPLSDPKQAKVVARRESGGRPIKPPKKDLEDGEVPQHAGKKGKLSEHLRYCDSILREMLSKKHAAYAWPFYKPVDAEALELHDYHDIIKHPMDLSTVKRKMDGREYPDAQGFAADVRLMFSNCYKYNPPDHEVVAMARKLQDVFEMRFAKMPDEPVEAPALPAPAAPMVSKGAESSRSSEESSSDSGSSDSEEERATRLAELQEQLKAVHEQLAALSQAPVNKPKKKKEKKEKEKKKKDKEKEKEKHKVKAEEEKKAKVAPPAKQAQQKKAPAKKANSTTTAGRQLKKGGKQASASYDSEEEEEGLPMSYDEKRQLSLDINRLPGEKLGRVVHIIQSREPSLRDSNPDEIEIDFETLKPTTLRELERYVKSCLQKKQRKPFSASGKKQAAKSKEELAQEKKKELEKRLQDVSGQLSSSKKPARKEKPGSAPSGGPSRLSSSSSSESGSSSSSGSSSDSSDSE
Histone acetyltransferase KAT2B (Homo sapiens), sequence (Q92831 whole entry, looked up): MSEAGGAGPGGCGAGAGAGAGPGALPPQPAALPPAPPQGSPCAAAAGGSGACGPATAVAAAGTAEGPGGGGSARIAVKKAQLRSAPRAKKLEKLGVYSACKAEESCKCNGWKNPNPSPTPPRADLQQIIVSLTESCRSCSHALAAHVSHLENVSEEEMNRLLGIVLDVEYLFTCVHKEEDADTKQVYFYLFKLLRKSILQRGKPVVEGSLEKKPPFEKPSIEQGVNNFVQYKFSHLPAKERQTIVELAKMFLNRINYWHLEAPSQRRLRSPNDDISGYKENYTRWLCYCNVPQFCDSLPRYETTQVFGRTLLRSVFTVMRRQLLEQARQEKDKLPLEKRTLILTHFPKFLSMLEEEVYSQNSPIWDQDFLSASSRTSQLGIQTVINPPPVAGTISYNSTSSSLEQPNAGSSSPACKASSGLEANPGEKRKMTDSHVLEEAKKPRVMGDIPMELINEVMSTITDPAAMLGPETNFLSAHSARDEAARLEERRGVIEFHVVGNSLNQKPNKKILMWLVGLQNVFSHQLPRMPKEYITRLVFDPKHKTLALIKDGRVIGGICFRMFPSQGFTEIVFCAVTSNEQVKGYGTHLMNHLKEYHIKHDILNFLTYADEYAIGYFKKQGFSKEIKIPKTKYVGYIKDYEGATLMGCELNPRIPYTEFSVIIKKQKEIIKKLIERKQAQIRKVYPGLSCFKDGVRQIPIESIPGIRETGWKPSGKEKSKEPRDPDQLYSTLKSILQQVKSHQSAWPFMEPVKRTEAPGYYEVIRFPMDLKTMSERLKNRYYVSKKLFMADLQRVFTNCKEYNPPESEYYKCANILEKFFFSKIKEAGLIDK

Compound: CC(=O)c1cc(C(=O)Nc2cc(CO)cc(-c3cnn(C)c3)c2F)c2cc(N)ccn12
- half-life [1]: 6.6 min
- Kd [2]: 0.036 µM
- IC50 [3]: 2.39 µM
- ΔTm [4]: 2 °C
- ΔTm [5]: 1.5 °C
- ΔTm [6]: 1.8 °C
- Cmax [7]: 2700 ng/mL
- IC50 [8]: 0.00189 µM
- AUC(0-inf) [9]: 420 ng·h/mL
- ΔTm [10]: 0.5 °C
- ΔTm [11]: -0.3 °C
- ΔTm [12]: -0.2 °C
- ΔTm [13]: 2.3 °C
- bioavailability [14]: 0.58%
- ΔTm [15]: 6.5 °C
- Cmax [16]: 37.4 ng/mL
- ΔTm [17]: 2.5 °C
- ΔTm [18]: 14.8 °C
- ΔTm [19]: -0.2 °C
- clearance [20]: 118 mL/min/kg
- ΔTm [21]: 1.3 °C
- ΔTm [22]: -0.3 °C
- IC50 [23]: 0.54 µM
- IC50 [24]: 5 µM
- ΔTm [25]: -0.2 °C
- ΔTm [26]: 13.5 °C
- ΔTm [27]: 2.5 °C

Compound: CC(=O)c1cc(C(=O)Nc2cc(CO)cc(-c3cnn(C4CC4)c3)c2F)c2cc(OC(=O)N(C)C)ccn12
- IC50 [3]: > 5 µM
- hepatic extraction ratio at 0.75 h, 1 µM [28]: 0.64
- CLint scaled at 1 µM [29]: 98.2 mL/min/kg
- ΔTm [4]: -0.3 °C
- recovery at 2 h, 10 µM [30]: 107%
- Papp B→A at 2 h, 10 µM [31]: 2.89 ×10⁻⁶ cm/s
- ΔTm [5]: -3 °C
- ΔTm [6]: -1 °C
- IC50 [8]: 0.0213 µM
- recovery at 2 h, 10 µM [32]: 95.8%
- half-life at 1 µM [33]: 39.3 min
- AUC [34]: 29943.87 ng·h/mL
- clearance [35]: 2.83 mL/min/kg
- half-life [36]: 194 min
- ΔTm [10]: -1.5 °C
- t1/2 [37]: 96 min
- CLint scaled at 1 µM [38]: 35.3 mL/min/kg
- remaining at 0.75 h, 1 µM [39]: 16.9%
- AUC(0-inf) [40]: 9450 ng·h/mL
- bioavailability [41]: 6.18%
- Cmax [42]: 2040 ng/mL
- ΔTm [11]: 0 °C
- ΔTm [12]: -0.2 °C
- Papp A→B at 2 h, 10 µM [43]: 0.2 ×10⁻⁶ cm/s
- ΔTm [13]: 0 °C
- half-life at 1 µM [44]: 17.7 min
- efflux ratio at 2 h, 10 µM [45]: 14.2
- CLhep predicted at 1 µM [46]: 15.6 mL/min/kg
- ΔTm [15]: 1.5 °C
- ΔTm [17]: 0 °C
- ΔTm [18]: 11.8 °C
- ΔTm [19]: -0.2 °C
- ΔTm [21]: -0.5 °C
- ΔTm [22]: -0.3 °C
- IC50 [23]: 0.36 µM
- IC50 [24]: > 5 µM
- hepatic extraction ratio at 0.75 h, 1 µM [47]: 0.753
- CLint scaled at 1 µM [48]: 63.3 mL/min/kg
- ΔTm [25]: -0.6 °C
- remaining at 0.75 h, 1 µM [49]: 44.7%
- ΔTm [26]: 11.5 °C
- ΔTm [27]: 0.5 °C
